Source: patent US9676997B2, “Compositions and methods for stabilizing luminogenic substrates” (Promega Corporation, priority 2014, dated 2017)
Where two headings read alike, the source gives them in different places. One block for each molecule: values may come before it.

What was measured:
[1] = Stability of 1.25 mM coelenterazine in 50% ethanol and 50% propylene glycol with or without 225 mM ATT, HPLC and Arrhenius plots; format: physicochemical; conditions: for half-life at 1.25 mM: solution of 50% ethanol and 50% propylene glycol
Procedure: The stability of coelenterazine in the presence and absence of ATT was measured over time at different temperatures. Specifically, 1.25 mM coelenterazine was present in a solution of 50% ethanol and 50% propylene glycol (i.e., the solution without ATT) or a solution of 50% ethanol and 50% propylene glycol with 225 mM ATT (i.e., the solution with ATT). These two solutions were incubated at −20° C., room temperature (RT), 40° C., or 60° C. and analyzed at 0 days, 1 day, 3 days, 7 days, 15 days, and 30 days.
Following incubation, high performance liquid chromatography (HPLC) was utilized to identify the components of the respective solutions at each time point. Specifically, an Agilent 1100 HPLC instrument was used and equipped with a quaternary pump, thermostatted autosampler and column compartment, and a G1311B diode-array detector. The column used was a Synergi-MAX-RP (Phenomenex, Torrance, Calif.) 100 AÅ 50×4.6 2.5 μm. The run on the HPLC was a gradient run with 0.1% TFA in water and acetonitrile. Absorbance was measured at 262 nanometers (nm). Standards of coelenterazine and its known degradants were run to confirm both the retention time and absorbance trace. 5 μl of each solution was injected and the retention time of coelenterazine was 3.9 minutes at room temperature.
The results of the HPLC analysis are shown below in Tables 1 and 2 and FIGS. 1A and 1B, in which the values are reported as relative peak area percentage at 262 nm (i.e., the lamba max of the substrate). […] In each of FIGS. 1A and 1B, diamond is 1.25 mM coelenterazine incubated over time with or without 225 mM ATT, respectively, at −20° C., triangle is 1.25 mM coelenterazine incubated over time with or without 225 mM ATT, respectively, at room temperature (RT), star is 1.25 mM coelenterazine incubated over time with or without 225 mM ATT, respectively, at 40° C., and cross is 1.25 mM coelenterazine incubated over time with or without 225 mM ATT, respectively, at 60° C.
From the HPLC analysis, the half-life of coelenterazine in the presence of ATT at 40° C. and 60° C. was calculated to be 23 days and 5 days, respectively, while the half-life of coelenterazine in the absence of ATT at 40° C. and 60° C. was calculated to be 9.5 days and 2 days, respectively (see Table 3 below).
Additionally, Arrhenius plots were generated for coelenterazine in the presence and absence of ATT to calculate the half-life of coelenterazine at various temperatures. The Arrhenius equation is as follows: […]
In FIG. 7, the slope was −8636.59, the intercept was 24.1199, and R^2 was 0.9983.
In FIG. 8, the slope was −7382.51, the intercept was 21.2598, and R^2 was 0.9570.

[2] = Stability of 2.3 mM furimazine at 37° C. in the dark with or without 200 mM thionucleoside, luminescence with NANOLUC enzyme; format: physicochemical; conditions: 50% propylene glycol:50% ethanol
Procedure: Specifically, a stock solution of furimazine in 50% propylene glycol:50% ethanol (v/v) was prepared, in which the final concentration of furimazine by absorbance was 4.6 mM. The furimazine stock solution was then diluted 1:1 in 50% propylene glycol:50% ethanol (v/v) to create a control solution without the additives ATT, TAK-0014 and TAK-0002 (i.e., “no additive furimazine” control) and containing 2.3 mM furimazine. 400 mM stock solutions of ATT, TAK-0014 and TAK-0002 were prepared in 50% propylene glycol:50% ethanol (v/v). Each of the ATT, TAK-0014 and TAK-0002 stock solutions was then diluted 1:1 in the 4.6 mM furimazine stock solution to yield solutions containing 200 mM ATT, TAK-0014 or TAK-0002, and 2.3 mM furimazine.
Each sample was separated into multiple amber tubes and incubated at 37° C. in a dark incubator (i.e., in the absence of light). Aliquots were taken from each sample at various time points and stored at −20° C. in the dark (i.e., in the absence of light) until all time points were collected.
To measure luminescence in the aliquots, each aliquot was diluted 1:50 in buffer (NANOGLO buffer, Promega Corporation) to yield 46 μM furimazine. These diluted aliquots were further diluted 1:10 in buffer (NANOGLO buffer, Promega Corporation) to yield 4.6 μM furimazine. 504 of each dilution (i.e., the twice diluted (0.1) aliquots) was mixed with 504, of CO2-independent media+10% fetal bovine serum (FBS) and 0.4 ng/mL luminogenic enzyme (NANOLUC enzyme, Promega Corporation). Luminescence was measured on a luminometer (GLOMAX Multi Plus luminometer, Promega Corporation). Relative light units (RLUs) were normalized for each time point by the RLU value at the 0 days time point. The percent activity from the 0 days time point (i.e., t=0) was plotted against time (days) for each sample as shown in FIG. 15A. In FIG. 15A, B-ATT denoted TAK-0002 and E-ATT denoted TAK-0014.
Error in Table 15 was the standard error from a regression calculation and Fz denoted furimazine, B-ATT denoted TAK-0002, and E-ATT denoted TAK-0014.

[3] = decomposition of coelenterazine

relative peak area percentage at 262 nm ([1]; 40° C., 0 days): 96.5% | relative peak area percentage at 262 nm ([1]; 40° C., 1 day): 92.2% | relative peak area percentage at 262 nm ([1]; 40° C., 3 days): 84.9% | relative peak area percentage at 262 nm ([1]; 40° C., 15 days): 12.6% | relative peak area percentage at 262 nm ([1]; 60° C., 0 days): 96.5% | relative peak area percentage at 262 nm ([1]; 60° C., 1 day): 79.6% | relative peak area percentage at 262 nm ([1]; 60° C., 3 days): 36.8% | relative peak area percentage at 262 nm ([1]; RT, 0 days): 96.5% | relative peak area percentage at 262 nm ([1]; RT, 1 day): 96.1% | relative peak area percentage at 262 nm ([1]; RT, 3 days): 94.0% | relative peak area percentage at 262 nm ([1]; RT, 7 days): 91.0% | relative peak area percentage at 262 nm ([1]; RT, 15 days): 87.4% | relative peak area percentage at 262 nm ([1]; RT, 30 days): 57.7% | half-life at 1.25 mM ([1]; 20° C., read-out: T1/2 Calculated from Arrhenius (converted)): 852 h | half-life at 1.25 mM ([1]; 40° C., read-out: T1/2 Calculated from Arrhenius (converted)): 170 h | half-life at 1.25 mM ([1]; 40° C., read-out: T1/2 Estimated from graph (converted)): 228 h | half-life at 1.25 mM ([1]; 60° C., read-out: T1/2 Calculated from Arrhenius (converted)): 40.8 h | half-life at 1.25 mM ([1]; 60° C., read-out: T1/2 Estimated from graph (converted)): 48 h | half-life at 1.25 mM ([1]; −20° C., read-out: T1/2 Calculated from Arrhenius (converted)): 46500 h | relative peak area percentage at 262 nm ([1]; −20° C., 0 days): 96.5% | relative peak area percentage at 262 nm ([1]; −20° C., 1 day): 97.2% | relative peak area percentage at 262 nm ([1]; −20° C., 3 days): 96.4% | relative peak area percentage at 262 nm ([1]; −20° C., 7 days): 96.5% | relative peak area percentage at 262 nm ([1]; −20° C., 15 days): 96.5% | relative peak area percentage at 262 nm ([1]; −20° C., 30 days): 86.2%
SMILES: O=c1c(Cc2ccc(O)cc2)nc2c(Cc3ccccc3)[nH]c(-c3ccc(O)cc3)cn1-2 [Coelenterazine (27-957-28), coelenterazine]
Arrhenius plot intercept [1, 3]: 21.2598 | Arrhenius plot slope [1, 3]: −7382.51

SMILES: O=c1[nH]c(=S)[nH]nc1Cc1ccccc1 [TAK-0002, 6-benzyl-3-sulfanyl-1,2,4-triazin-5-ol]
stabilization of furimazine against decomposition in the absence of light [2]: stabilized furimazine against decomposition in the absence of light

SMILES: CCc1n[nH]c(=S)[nH]c1=O [TAK-0014]
stabilization of furimazine against decomposition in the absence of light [2]: stabilized furimazine against decomposition in the absence of light
